# Read-outs that look alike come from different tables or passages of the source.
# What was measured:
# [1] = test system: S aureus; experiment: MIC, microbiological activity (Tables 2, 3); format: cell-based
# [2] = clinical; settings: human, in vivo; for AUC(0-inf): AUC0-inf; for clearance: CL; for Vd: Vss
# Description: The peak concentrations (Cmax) were obtained directly from the observed data. The area under the plasma concentration-time curve (AUC) were calculated using the linear trapezoidal rule.
# Clinical Study VER001-13 examined subjects with mild and moderate renal impairment and Clinical Study VER001-1 examined subjects with severe renal impairment and subjects with end-stage renal disease (ESRD). Matched control subjects were enrolled in all studies. […] Subjects with ESRD were dependent on dialysis through the course of the study (3 times weekly).
structure (smiles),measurement,setting,value
CN[C@H]1C(=O)N[C@@H]2Cc3ccc(cc3)Oc3cc4cc(c3O[C@@H]3O[C@H](C(=O)O)[C@@H](O)[C@H](O)[C@H]3NC(=O)CCCCCCCCC(C)C)Oc3ccc(cc3Cl)[C@@H](O)[C@@H]3NC(=O)[C@H](NC(=O)[C@@H]4NC(=O)[C@@H](NC2=O)c2cc(cc(O)c2Cl)Oc2cc1ccc2O)c1ccc(O)c(c1)-c1c(O[C@H]2O[C@H](CO)[C@@H](O)[C@H](O)[C@@H]2O)cc(O)cc1[C@@H](C(=O)NCCCN(C)C)NC3=O [Dalbavancin],MIC,"[1]; 3817 S aureus clin. Isolate, read-out: MIC",< 0.03 µg/mL
same,MIC,[1]; L 819 S aureus Smith 50% serum,2 µg/mL
same,MIC,"[1]; L 819 S aureus Smith 50% serum, read-out: MIC",1 µg/mL
same,MIC,"[1]; Staphylococcus aureus, MSSA, MSSA Staph. aureus Smith 819, read-out: MIC",0.06 µg/mL
same,AUC,"[2]; 500 mg, AUC",24400 µg·h/mL
same,AUC,"[2]; 500 mg, AUC0-day7",6080 µg·h/mL
same,AUC,"[2]; 500 mg, AUC0-day14",10400 µg·h/mL
same,AUC(0-inf),[2]; 500 mg,24100 µg·h/mL
same,AUC,"[2]; 500 mg, AUC7",6860 µg·h/mL
same,AUC,"[2]; 500 mg, AUC14",11000 µg·h/mL
same,clearance,[2]; 500 mg,0.37 mL/min
same,Cmax,[2]; 500 mg,137 µg/mL
same,Vd,[2]; 500 mg,13.2 L
same,AUC,"[2]; 1000 mg, AUC",24500 µg·h/mL
same,AUC,"[2]; 1000 mg, AUC0-day7",9710 µg·h/mL
same,AUC,"[2]; 1000 mg, AUC0-day14",15300 µg·h/mL
same,AUC(0-inf),[2]; 1000 mg,27000 µg·h/mL
same,AUC,"[2]; 1000 mg, AUC7",13400 µg·h/mL
same,AUC,"[2]; 1000 mg, AUC 14",~22000 µg·h/mL
same,AUC,"[2]; 1000 mg, AUC14",17700 µg·h/mL
same,AUC,"[2]; 1000 mg, AUC42",23100 µg·h/mL
same,clearance,[2]; 1000 mg,0.627 mL/min
same,Cmax,[2]; 1000 mg,340 µg/mL
same,Vd,[2]; 1000 mg,16.5 L
same,AUC,"[2]; 1120 mg, AUC",25800 µg·h/mL
same,AUC,"[2]; 1120 mg, AUC0-day7",13600 µg·h/mL
same,AUC,"[2]; 1120 mg, AUC0-day14",20200 µg·h/mL
same,AUC(0-inf),[2]; 1120 mg,25800 µg·h/mL
same,AUC,"[2]; 1120 mg, AUC7",13600 µg·h/mL
same,AUC,"[2]; 1120 mg, AUC14",20200 µg·h/mL
same,clearance,[2]; 1120 mg,0.728 mL/min
same,Cmax,[2]; 1120 mg,325 µg/mL
same,Vd,[2]; 1120 mg,8.49 L

# — US8143212B2 (Vicuron Pharmaceuticals Inc., priority 2002, dated 2012)
